In patent US9034887B2, “Dihydroorotate dehydrogenase as antifungal drug target and quinazolinone-based inhibitors thereof” (F2G Limited, priority 2008, dated 2015):
Values after ≈ are worked out from the molar mass of the structure shown.

Assays:
[1] = biological target: T1, Recombinant DHODH from human (Homo sapiens, UniProt Q02127); test: DHODH inhibition screen (DCIP reduction, 600 nm), human enzyme; assay type: biochemical; settings: Table 3, read-out: IC50 values for Compound Examples 1 to 15 identified from screens, Human
T1 construct: His-tag; NusA (Nus-tag) fusion of vector pET43.1 (own knowledge of the vector) (N); made in house; host or cells: E. coli BL21 DE3
Procedure: (§1) 1. The following buffer and stock solution were prepared:
(§2) Coenzyme Q2 (Sigma) was dissolved in DMSO to give a concentration of 10 mg/ml. […] The stock solution was made with 127.36 μl DHO, 127.36 μl DCIP and 318.4 μl Coenzyme Q2, made up to 80 ml with Buffer A. Final concentrations in assay wells were; DHO, 500 μM; Coenzyme Q, 50 μM; DCIP, 100 μM.
(§3) 2. […] Duplicate sets of plates were used such that one set received enzyme while a control set received no enzyme.
(§4) 3. […] Then 20 μl of DHODH solution was added to all the +enzyme plates and 20 μl of Buffer A was added to all the control −enzyme plates.
(§5) 4. 20 μl of DHO/Coenzyme Q2/DCIP solution was added to all the wells, after which plates were incubated at room temperature for […] and then read on a Tecan Safire spectrophotometer at 600 nm.
(§6) Recombinant DHODH from human or C. albicans was assayed in the same way. It is necessary to adjust the enzyme concentration and reaction time to take into account variations in activity of enzyme batches, thus the incubation time was 20 minutes for the C. albicans enzyme and 34 minutes for the human enzyme.

[2] = biological target: Recombinant A. fumigatus DHODH (Aspergillus fumigatus, UniProt Q4X169); test: DHODH inhibition screen (DCIP reduction, 600 nm), A. fumigatus enzyme; assay type: biochemical
Procedure: as §1
Buffer A: 62.5 mM TrisHCl (pH8.0), 150 mM NaCl, 10% v/v glycerol
DHO/Coenzyme Q2/DCIP solution: 19.848 mg dihydroorotate (DHO; Sigma) was dissolved in 160 μl DMSO. Coenzyme Q2 (Sigma) was dissolved in DMSO to give a concentration of 10 mg/ml. 7.236 mg 2,6-dichloroindophenol (DCIP; Sigma) was dissolved in 160 μl DMSO. The stock solution was made with 127.36 μl DHO, 127.36 μl DCIP and 318.4 μl Coenzyme Q2, made up to 80 ml with Buffer A. Final concentrations in assay wells were; DHO, 500 μM; Coenzyme Q, 50 μM; DCIP, 100 μM.
2. Compounds were aliquotted into 384-well microtitre plates at a range of dilutions to give final concentrations in the assay of […]. Duplicate sets of plates were used such that one set received enzyme while a control set received no enzyme. Since compounds are frequently dissolved in DMSO or a DMSO/water mixture, assays were set up to give a final concentration of 1% (v/v) DMSO in wells.
3. Recombinant A. fumigatus DHODH was suspended in Buffer A to give a concentration of 1435.8 ng protein in 20 μl. Then 20 μl of DHODH solution was added to all the +enzyme plates and 20 μl of Buffer A was added to all the control −enzyme plates.
as §5
as §6, with “enzyme. Compounds are screened against a fungal and human enzyme to identify compounds which are selective for the fungal enzyme.” for “enzyme.”

[3] = tested on: Aspergillus flavus; test: MIC in YAG medium, A. flavus; assay type: cell-based; settings: 24 hrs at 35° C., >70% growth inhibition, read-out: MIC grade, A. flavus
Procedure: (§7) Between 1 and 5 mgs of compound were accurately weighed out into a sterile Eppendorf tube. The compound was dissolved in DMSO to give a solution containing 5 mg/mL. Tubes were stored at −20° C. until required.
(§8) On the day of testing thawed solutions were vortex mixed to ensure homogeneity. 30 μL of solution was removed and added to 570 μL of sterile water in a separate sterile Eppendorf. The thoroughly mixed solution was used to prepare a series of doubling dilutions in water, in a deep well plate. Thirteen replicate plates were prepared using a Minitrak by aspirating 20 μL from each well into eleven clear polystyrene 96 well plates.
(§9) Spores of Aspergillus spp. (Aspergillus fumigatus [two strains], Aspergillus terreus [two strains], Aspergillus niger and Aspergillus flavus) were harvested from cultures grown on Sabarauds agar for 5 days, and resuspended in PBS/Tween 80 to approx 1×10^7 cfu/mL. Each organism suspension was diluted in YAG medium (1% glucose, 1% ammonium chloride and 0.5% yeast extract) to 0.5-2×10^4 cfu/mL. 80 μL of an organism suspension was added to each well of the plate containing drug dilutions.
(§10) All plates were incubated for 24 hrs at 35° C. Growth was assessed by monitoring the optical density at 485 nm for each well. The MIC of a compound is the lowest drug concentration that inhibits growth of an organism by >70% compared with a drug free control. MICs are recorded as mg/L. In cases where the MIC of an organism is […] the MIC is repeated using a concentration range of 0.5-0.0005 mg/L.

[4] = tested on: Aspergillus fumigatus; test: MIC in YAG medium, A. fumigatus; assay type: cell-based; settings: 24 hrs at 35° C., >70% growth inhibition, read-out: MIC grade, A. fumigatus
Procedure: as §7, §8, §9, §10

[5] = tested on: A. fumigatus 210; test: MIC in YAG medium, A. fumigatus 210; assay type: cell-based; settings: Aspergillus fumigatus, 24 hrs at 35° C., >70% growth inhibition, read-out: MIC grade, A. fumigatus 210
Procedure: as §7, §8, §9, §10

[6] = tested on: Aspergillus niger; test: MIC in YAG medium, A. niger; assay type: cell-based; settings: 24 hrs at 35° C., >70% growth inhibition, read-out: MIC grade, A. niger
Procedure: as §7, §8, §9, §10

[7] = tested on: Aspergillus terreus; test: MIC in YAG medium, A. terreus; assay type: cell-based; settings: 24 hrs at 35° C., >70% growth inhibition, read-out: MIC grade, A. terreus
Procedure: as §7, §8, §9, §10

[8] = tested on: A. terreus 49; test: MIC in YAG medium, A. terreus 49; assay type: cell-based; settings: Aspergillus terreus, 24 hrs at 35° C., >70% growth inhibition, read-out: MIC grade, A. terreus 49
Procedure: as §7, §8, §9, §10

[9] = tested on: Aspergillus flavus; test: MIC in RPMI medium, A. flavus; assay type: cell-based; settings: 24-48 hrs at 35° C., >80% growth inhibition, read-out: MIC grade, A. flavus
Procedure: as §7, §8
(§11) Assays were also performed in RPMI medium. To perform MIC tests in this medium, dilutions of compounds are prepared in microtitre plates as described above. Fungal strains to be tested are grown and harvested in an identical manner to that described above, and each organism suspension was diluted in RPMI medium, containing 2% glucose and 0.135 M MOPS buffer (pH 7.0) to 0.5-2×10^4 cfu/mL, rather than in YAG medium. 80 μL of an organism suspension was added to each well of the plate containing drug dilutions.
(§12) All plates were incubated for 24-48 hrs at 35° C. Growth was assessed by monitoring the optical density at 485 nm for each well. […] The following organisms were tested: Aspergillus flavus, Aspergillus fumigatus AF293 and AF210, Aspergillus niger and Aspergillus terreus AT4 and AT49.

[10] = tested on: Aspergillus fumigatus AF293; test: MIC in RPMI medium, A. fumigatus; assay type: cell-based; settings: 24-48 hrs at 35° C., >80% growth inhibition, read-out: MIC grade, A. fumigatus
Procedure: as §7, §8, §11, §12

[11] = tested on: Aspergillus fumigatus AF210; test: MIC in RPMI medium, A. fumigatus 210; assay type: cell-based; settings: 24-48 hrs at 35° C., >80% growth inhibition, read-out: MIC grade, A. fumigatus 210
Procedure: as §7, §8, §11, §12

[12] = tested on: Aspergillus niger; test: MIC in RPMI medium, A. niger; assay type: cell-based; settings: 24-48 hrs at 35° C., >80% growth inhibition, read-out: MIC grade, A. niger
Procedure: as §7, §8, §11, §12

[13] = tested on: Aspergillus terreus AT4; test: MIC in RPMI medium, A. terreus; assay type: cell-based; settings: 24-48 hrs at 35° C., >80% growth inhibition, read-out: MIC grade, A. terreus
Procedure: as §7, §8, §11, §12

[14] = tested on: Aspergillus terreus AT49; test: MIC in RPMI medium, A. terreus 49; assay type: cell-based; settings: 24-48 hrs at 35° C., >80% growth inhibition, read-out: MIC grade, A. terreus 49
Procedure: as §7, §8, §11, §12

[15] = biological target: T2, Recombinant DHODH from C. albicans (Candida albicans, UniProt Q874I4); test: DHODH inhibition screen (DCIP reduction, 600 nm), C. albicans enzyme; assay type: biochemical
T2 construct: His-tag; NusA (Nus-tag) fusion of vector pET43.1 (own knowledge of the vector) (N); made in house; host or cells: E. coli BL21 DE3
T2 sequence (Q874I4 57-444): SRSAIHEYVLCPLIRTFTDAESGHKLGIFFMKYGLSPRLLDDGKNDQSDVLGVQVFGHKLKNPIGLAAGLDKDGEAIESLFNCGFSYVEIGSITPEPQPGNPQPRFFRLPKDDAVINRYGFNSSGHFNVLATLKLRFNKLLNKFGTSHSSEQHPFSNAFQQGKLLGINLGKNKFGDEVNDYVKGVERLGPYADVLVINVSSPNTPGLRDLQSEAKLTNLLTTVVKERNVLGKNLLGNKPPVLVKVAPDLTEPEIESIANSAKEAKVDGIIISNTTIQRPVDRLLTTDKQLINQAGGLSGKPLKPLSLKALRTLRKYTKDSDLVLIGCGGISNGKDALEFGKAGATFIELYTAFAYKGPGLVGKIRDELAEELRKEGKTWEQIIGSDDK
Procedure: as §1, §2, §3, §4, §5, §6

T1 sequence (Q02127 31-395 limits assumed): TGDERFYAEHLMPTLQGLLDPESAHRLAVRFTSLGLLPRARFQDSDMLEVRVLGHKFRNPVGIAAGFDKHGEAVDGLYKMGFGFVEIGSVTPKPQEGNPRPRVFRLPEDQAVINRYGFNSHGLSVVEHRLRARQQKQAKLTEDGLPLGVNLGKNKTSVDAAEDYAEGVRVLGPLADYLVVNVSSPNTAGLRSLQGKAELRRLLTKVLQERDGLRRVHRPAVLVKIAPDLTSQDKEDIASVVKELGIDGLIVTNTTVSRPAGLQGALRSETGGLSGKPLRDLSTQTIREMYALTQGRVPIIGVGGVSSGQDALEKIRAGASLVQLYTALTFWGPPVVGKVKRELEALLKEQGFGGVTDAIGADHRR
Recombinant A. fumigatus DHODH, sequence (Q4X169 entry or part of it): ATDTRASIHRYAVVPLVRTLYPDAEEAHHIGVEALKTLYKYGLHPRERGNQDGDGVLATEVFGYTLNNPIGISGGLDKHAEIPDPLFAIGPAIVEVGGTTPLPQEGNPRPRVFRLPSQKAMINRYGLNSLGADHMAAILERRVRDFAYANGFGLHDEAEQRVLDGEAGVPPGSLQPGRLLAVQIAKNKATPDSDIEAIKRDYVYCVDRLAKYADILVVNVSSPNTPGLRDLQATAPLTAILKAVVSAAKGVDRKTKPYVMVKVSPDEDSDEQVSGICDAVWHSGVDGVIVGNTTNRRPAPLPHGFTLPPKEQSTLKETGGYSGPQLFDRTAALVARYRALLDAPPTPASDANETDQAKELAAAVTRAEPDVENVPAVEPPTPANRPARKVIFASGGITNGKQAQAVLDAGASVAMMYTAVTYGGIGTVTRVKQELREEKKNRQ

Structure (SMILES) | IC50 [1] [µM] | IC50 [2] [µM] | MIC [3] [µg/mL] | MIC [4] [µg/mL] | MIC [5] [µg/mL] | MIC [6] [µg/mL] | MIC [7] [µg/mL] | MIC [8] [µg/mL] | MIC [9] [µg/mL] | MIC [10] [µg/mL] | MIC [11] [µg/mL] | MIC [12] [µg/mL] | MIC [13] [µg/mL] | MIC [14] [µg/mL] | IC50 [15] [µM]
COc1ccc2nc(SC(C)C)n(-c3ccccc3OC)c(=O)c2c1 [Compound Example 10, 2-Isopropylsulfanyl-6-methoxy-3-(2-methoxy-phenyl)-3H-quinazolin-4-one] | 50.2 | 19.6 | > 10 | 1 to 10 (≈ 2.81 to 28.1 µM) | 1 to 10 (≈ 2.81 to 28.1 µM) | < 1 | 1 to 10 (≈ 2.81 to 28.1 µM) | < 1 | > 10 | > 10 | > 10 | 1 to 10 (≈ 2.81 to 28.1 µM) | > 10 | > 10 | –
Cc1c(-c2ccc(-c3ccccc3F)cc2)nc2ccc(F)cc2c1C(=O)O [Brequinar, brequinar] | – | – | – | – | – | – | – | – | – | – | – | – | – | – | 143
CCSc1nc2ccccc2c(=O)n1-c1ccccc1CC [Compound Example 13, 3-(2-Ethyl-phenyl)-2-ethylsulfanyl-3H-quinazolin-4-one] | 86.1 | 36.2 | > 10 | 1 to 10 (≈ 3.22 to 32.2 µM) | 1 to 10 (≈ 3.22 to 32.2 µM) | < 1 | 1 to 10 (≈ 3.22 to 32.2 µM) | 1 to 10 (≈ 3.22 to 32.2 µM) | > 10 | 1 to 10 (≈ 3.22 to 32.2 µM) | > 10 | 1 to 10 (≈ 3.22 to 32.2 µM) | > 10 | > 10 | –
CCSc1nc2cc(C)ccc2c(=O)n1-c1ccccc1OC [Compound Example 5, 2-Ethylsulfanyl-3-(2-methoxy-phenyl)-7-methyl-3H-quinazolin-4-one] | 15.5 | 5.4 | < 1 | < 1 | < 1 | < 1 | < 1 | < 1 | > 10 | 1 to 10 (≈ 3.06 to 30.6 µM) | 1 to 10 (≈ 3.06 to 30.6 µM) | > 10 | 1 to 10 (≈ 3.06 to 30.6 µM) | 1 to 10 (≈ 3.06 to 30.6 µM) | –
CC(C)Sc1nc2ccccc2c(=O)n1-c1ccccc1N(C)C [Compound Example 11, 3-(2-Dimethylamino-phenyl)-2-isopropylsulfanyl-3H-quinazolin-4-one] | 118 | 21.2 | > 10 | 1 to 10 (≈ 2.95 to 29.5 µM) | 1 to 10 (≈ 2.95 to 29.5 µM) | 1 to 10 (≈ 2.95 to 29.5 µM) | 1 to 10 (≈ 2.95 to 29.5 µM) | 1 to 10 (≈ 2.95 to 29.5 µM) | > 10 | 1 to 10 (≈ 2.95 to 29.5 µM) | > 10 | 1 to 10 (≈ 2.95 to 29.5 µM) | > 10 | > 10 | –
COc1ccccc1-n1c(SC(C)C)nc2cccc(OC)c2c1=O [Compound Example 4, 2-Isopropylsulfanyl-5-methoxy-3-(2-methoxy-phenyl)-3H-quinazolin-4-one] | 73 | 4.95 | 1 to 10 (≈ 2.81 to 28.1 µM) | < 1 | < 1 | < 1 | < 1 | < 1 | > 10 | < 1 | 1 to 10 (≈ 2.81 to 28.1 µM) | < 1 | 1 to 10 (≈ 2.81 to 28.1 µM) | 1 to 10 (≈ 2.81 to 28.1 µM) | –
COc1ccccc1-n1c(SC(C)C)nc2ccc(N(C)C)cc2c1=O [Compound Example 6, 6-Dimethylamino-2-isopropylsulfanyl-3-(2-methoxy-phenyl)-3H-quinazolin-4-one] | 1.09 | 10.1 | > 10 | 1 to 10 (≈ 2.71 to 27.1 µM) | 1 to 10 (≈ 2.71 to 27.1 µM) | < 1 | 1 to 10 (≈ 2.71 to 27.1 µM) | 1 to 10 (≈ 2.71 to 27.1 µM) | > 10 | > 10 | 1 to 10 (≈ 2.71 to 27.1 µM) | < 1 | > 10 | > 10 | –
